Data taken from EP1000062B1, “TRICYCLIC VASOPRESSIN AGONISTS” (Wyeth, priority 1997, dated 1999).

What was measured:
Type in all cases: in vivo
[1] = system: Vasopressin V2; experiment: Vasopressin V2 agonist effects of test compounds in normal conscious water-loaded rats; conditions: Sprague-Dawley (CD) rats, oral 1 mg/kg, urine collected for four hours; for Osmolality (% Increase): change in osmolality as percent of control; for Urine Volume (% decrease): vs. control
[2] = system: Vasopressin V2; experiment: Vasopressin V2 agonist effects of test compounds in normal conscious homozygous Brattleboro rats with central diabetes insipidus; conditions: Brattleboro (BB) rats, oral 10 mg/kg, urine collected for six hours; for Osmolality (% Increase): change in osmolality as percent of control; for Urine Volume (% decrease): vs. control
Description: Vasopressin V2 Agonist Effects of Test Compounds in Normal Conscious Homozygous Brattleboro Rats with Central Diabetes Insipidus
Male or female homozygous Brattleboro rats (Harlan Sprague Dawley, Inc., Indianapolis, IN) of 250-350 g body weight were supplied with standard rodent diet (Purina Rodent Lab. Chow 5001) and water ad libitum. On the day of test, rats were placed individually into metabolic cages equipped with devices to separate the feces from the urine and containers for collection of urine. Test compound or reference agent was given at an oral dose of 1 to 10 mg/kg in a volume of 10 ml /kg. The vehicle used was 20% dimethylsulfoxide (DMSO) in 2.5% preboiled corn starch. During the test, rats were provided with water ad libitum. Urine was collected for six hours after dosing of the test compound. At the end of six hours, urine volume was measured. Urinary osmolality was determined using a Fiske One-Ten Osmometer (Fiske Associates, Norwood, MA, 02062) or an Advanced CRYOMATIC Osmometer, Model 3C2 (Advanced Instruments, Norwood, MA). Determinations of Na^+, K^+ and Cl^- ion were carried out using ion specific electrodes in a Beckman SYNCHRON EL-ISE Electrolyte System analyzer. This animal model was mainly used for evaluation of potency and duration of action of the active compounds.

[3] = system: Vasopressin V2; experiment: Vasopressin V2 agonist effects of test compounds in normal conscious water-loaded rats; conditions: Sprague-Dawley (CD) rats, oral 10 mg/kg, urine collected for four hours; for Osmolality (% Increase): change in osmolality as percent of control; for Urine Volume (% decrease): vs. control
Experimental: Vasopressin V2 Agonist Effects of Test Compounds in Normal Conscious Water-Loaded Rats:
On the day of test, rats were placed individually into metabolic cages equipped with devices to separate the feces from the urine and containers for collection of urine. Test compound or reference agent was given at an oral dose of 10 mg/kg in a volume of 10 ml /kg. […] Thirty minutes after dosing the test compound, rats were gavaged with water at 30 ml /kg into the stomach using a feeding needle. During the test, rats were not provided with water or food. Urine was collected for four hours after dosing of the test compound. At the end of four hours, urine volume was measured. […] Determinations of Na^+, K^+ and Cl^- ion were carried out using ion specific electrodes in a Beckman SYNCHRON EL-ISE Electrolyte System analyzer. […] In the screening test, two rats were used for each compound. If the difference in the urine volume of the two rats was greater than 50%, a third rat was used.

Compound	Osmolality (% Increase) [3] [%]	Urine Volume (% decrease) [3] [%]	also measured
Cc1ccn(-c2ccc(C(=O)N3Cc4cccn4Cc4ccccc43)c(C(F)(F)F)c2)n1 [Example 2, [4-(3-Methyl-pyrazol-1-yl)-2-trifluoromethyl-phenyl](5H,11H-pyrrolo[2,1-c]-[1,4]benzadiazepin-10-yl)-methanone]			Osmolality (% Increase) [1]: 306% (1 mg/kg); Urine Volume (% decrease) [1]: 80% (1 mg/kg)
Cc1ccn(-c2ncc(C(=O)N3Cc4cccn4Cc4ccccc43)c(C(F)(F)F)n2)n1 [Example 20, [2-(3-Methyl-pyrazol-1-yl)-4-trifluoromethyl-pyrimidin-5-yl]-(5H,11H-pyrrolo[2,1-c][1,4]benzodiazepin-10-yl)-methanone]			Osmolality (% Increase) [1]: 152% (1 mg/kg); Urine Volume (% decrease) [1]: 25% (1 mg/kg)
CC(=O)n1ccc(-c2ccc(C(=O)N3Cc4cccn4Cc4ccccc43)cc2)n1 [Example 30, 1-{3-[4-(5H,11H-Pyrrolo[2,1-c][1,4]benzodiazepine-10-carbonyl)-phenyl]-pyrazol-1-yl}-ethanone]			Osmolality (% Increase) [2]: 334%; Urine Volume (% decrease) [2]: 81%
O=C(c1ccc(-c2ccn(C(=O)c3cccs3)n2)cc1)N1Cc2cccn2Cc2ccccc21 [Example 34, (5H,11H-Pyrrolo[2,1-c][1,4]benzodiazepin-10-yl)-{4-[1-(thiophene-2-carbonyl)-1H-pyrazoly-3-yl]phenyl}-methanone]			Osmolality (% Increase) [2]: 407%; Urine Volume (% decrease) [2]: 76%
Cc1ccccc1C(=O)n1ccc(-c2ccc(C(=O)N3Cc4cccn4Cc4ccccc43)cc2)n1 [Example 36, {4-[1-(2-Methyl-benzoyl)-1H-pyrazol-3-yl]-phenyl}-(5H,11H-pyrrolo[2,1-c][1,4]benzodiazepin-10-yl)-methanone]			Osmolality (% Increase) [2]: 164%; Urine Volume (% decrease) [2]: 66%
O=C(c1ccc(-c2ccn(C(=O)c3ccc(Cl)cc3Cl)n2)cc1)N1Cc2cccn2Cc2ccccc21 [Example 38, {4-[1-(2,4-Dichloro-benzoyl)-1H-pyrazol-3-yl]-phenyl}-(5H,11H-pyrrolo[2,1-c][1,4]benzodiazepin-10-yl)-methanone]			Osmolality (% Increase) [2]: 256%; Urine Volume (% decrease) [2]: 66%
Cn1ncnc1-c1ccc(C(=O)N2Cc3cccn3Cc3ccccc32)cc1 [Example 49, [4-(2-Methyl-2H-[1,2,4]triazol-3-yl)-phenyl]-(5H,11H-pyrrolo[2,1-c][1,4]-benzodiazepin-10-yl)-methanone]			Osmolality (% Increase) [2]: 221%; Urine Volume (% decrease) [2]: 74%
COc1cc(-n2ccc(C)n2)ccc1C(=O)N1Cc2cccn2Cc2ccccc21 [Example 107, [2-Methoxy-4-(3-methyl-pyrazol-1-yl)-phenyl](5H,11H-pyrrolo[2,1-c][1,4]-benzodiazepin-10-yl) methanone]	125	31	
COc1cc(-n2ccc(C)n2)ccc1C(=O)N1Cc2ccc(CN(C)C)n2Cc2ccccc21 [Example 108, (3-Dimethylaminomethyl-5H,11H-pyrrolo[2,1-c][1,4]benzodiazepin-10-yl)[2-methoxy-4-(3-methyl-pyrazol-1-yl)-phenyl]-methanone]	145	30	
Cc1ccn(-c2ccc(C(=O)N3Cc4cccn4Cc4ccccc43)c(O)c2)n1 [Example 109]	95	21	
Cn1cc(-c2ccc(C(=O)N3Cc4cccn4Cc4ccccc43)c(Cl)c2)cn1 [Example 115, [2-Chloro-4-(1-methyl-1H-pyrazol-4-yl)phenyl) (5H,11H-pyrrolo[2,1-c][1,4]-benzodiazepin-10-yl)-methanone]	229	66	
Cc1ccn(-c2ccc(C(=O)N3Cc4ccnn4Cc4ccccc43)c(Cl)c2)n1 [Example 116, [2-Chloro-4-(3-methyl-pyrazol-1-yl)-phenyl]-(4H,10H-pyrazolo[5,1-c][1,4]-benzodiazepin-5-yl)-methanone]	256	66	
Cc1ccn(-c2ccc(C(=O)N3Cc4nnnn4Cc4ccccc43)c(Cl)c2)n1 [Example 117]	311	68	
Cn1ccc(-c2ccc(C(=O)N3Cc4ccnn4Cc4ccccc43)cc2)n1 [Example 120A, [4-(1-Methyl-1H-pyrazol-3-yl)phenyl](4H,10H-pyrazolo[5,1c][1,4]-benzodiazepin-5-yl) methanone]	269	66	
Cn1nccc1-c1ccc(C(=O)N2Cc3ccnn3Cc3ccccc32)cc1 [Example 120B, [4-(2-Methyl-1H-pyrazol-3-yl)phenyl](4H,10H-pyrazolo[5,1c][1,4]-benzodiazepin-5-yl) methanone]	272	67	
CC(=O)c1ccc(C(=O)N2Cc3cccn3Cc3ccccc32)c(Cl)c1 [Example 121, 1-[4-(5H,11H-pyrrolo[2,1-c][1,4]benzodiazepine-10-carbonyl)-3-chlorophenyl]-ethanone]	155	22	
[2-Chloro-4-(3-methyl-4-ethynyl-phenyl) (5H,11H-pyrrolo[2,1-c][1,4]-benzodiazepin-10-yl)-methanone [Example 123]	663	88	
